Assay [1] deals with METTL3/METTL14 (Homo sapiens, UniProt Q86U44). The experiment in a line: METTL3-14 standard enzyme assay (3H-SAM flashplate). The conditions noted are these: Table 4; METTL3 biochemical assay. The gist of the method: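 METTL3/METTL14 (2.5 nM) preincubated 5 min, then reacted with 3′-biotinylated RNA UCUGGACUAAA (100 nM) and 3H-SAM (100 nM) for 30 min at ambient temperature in 20 mM HEPES pH 7.5, 50 mM KCl, 250 μM MgCl2, 1 mM DTT. Quenched with 15 μM cold SAM; product captured on streptavidin flashplates, scintillation counted.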

In assay [2] the target is PRMT5-MEP50 (Homo sapiens, UniProt O14744). The experiment in a line: PRMT5 assay (3H-SAM flashplate). Conditions: Table 4; PRMT5 biochemical assay. The gist of the method:
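PRMT5-MEP50 at 2.5 nM, preincubated 5 min with compound in 20 mM Tris-HCl pH 8.0, 1 mM DTT, 0.01% Tween at ambient temperature. Biotinylated acetylated histone H4 peptide (100 nM) and 3H-SAM (250 nM) react 60 min, quenched with 15 μM cold SAM; methylation captured on streptavidin flashplates and scintillation-counted.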

The target in assay [3] is T1, FLT3 (Homo sapiens, UniProt P36888).
T1 sequence (P36888 27-993): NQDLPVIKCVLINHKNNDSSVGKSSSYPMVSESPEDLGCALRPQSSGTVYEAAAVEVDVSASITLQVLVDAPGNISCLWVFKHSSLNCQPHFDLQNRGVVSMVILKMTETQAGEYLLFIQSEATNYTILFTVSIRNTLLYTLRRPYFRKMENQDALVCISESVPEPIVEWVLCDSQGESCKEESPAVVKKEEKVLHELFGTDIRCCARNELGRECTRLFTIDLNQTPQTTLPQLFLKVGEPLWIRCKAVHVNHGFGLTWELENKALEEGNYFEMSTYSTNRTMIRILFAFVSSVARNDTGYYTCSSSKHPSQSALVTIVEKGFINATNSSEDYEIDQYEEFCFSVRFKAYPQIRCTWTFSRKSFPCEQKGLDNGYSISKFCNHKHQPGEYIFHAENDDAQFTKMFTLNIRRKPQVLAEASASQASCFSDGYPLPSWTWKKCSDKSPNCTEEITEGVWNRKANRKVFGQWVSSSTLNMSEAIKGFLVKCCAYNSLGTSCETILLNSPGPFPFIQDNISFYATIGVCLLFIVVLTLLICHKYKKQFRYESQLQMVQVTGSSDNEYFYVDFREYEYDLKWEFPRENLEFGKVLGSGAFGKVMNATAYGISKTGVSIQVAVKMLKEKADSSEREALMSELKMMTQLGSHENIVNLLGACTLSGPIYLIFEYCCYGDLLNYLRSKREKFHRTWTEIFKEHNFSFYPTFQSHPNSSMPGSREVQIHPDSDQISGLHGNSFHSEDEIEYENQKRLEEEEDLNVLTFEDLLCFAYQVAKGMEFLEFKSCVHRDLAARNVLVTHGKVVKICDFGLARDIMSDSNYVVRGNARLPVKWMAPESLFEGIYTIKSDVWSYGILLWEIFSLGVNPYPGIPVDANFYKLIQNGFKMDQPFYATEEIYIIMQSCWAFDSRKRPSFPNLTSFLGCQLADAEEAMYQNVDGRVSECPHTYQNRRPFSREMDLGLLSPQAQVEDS
The experiment in a line: FLT3 LanthaScreen assay. In kind it is biochemical. Conditions: Table 4. On the procedure:
(§1) FLT3/FLT3-ITD LanthaScreen Assays
(§2) Assays were performed in a 10 μl-volume in 384-well polypropylene microplates (Perkin Elmer Proxiplate, cat. No. 6059480) at ambient temperature. Optimized 1× assay buffer was 50 mM Hepes pH 7.5, 2 mM DTT, 0.01% Tween, 0.01% BSA, 10 mM MgCl2. For compound screening FLT3 (final concentration, f.c.=[…]) or FLT3-ITD (f.c.=[…]) was added using a Multidrop Combi (ThermoFisher Scientific, Waltham, MA) and preincubated for 10 min. Reactions were started by adding fluorescein-poly GT (f.c.=200 nM) and ATP (f.c.=57 μM) substrates. Reactions proceeded for 40 minutes. The reactions were stopped with a detection mixture of EDTA (f.c.=20 mM) and terbium-conjugated anti-phoso tyrosine antibody pY20 (f.c.=2 nM). The plates were sealed and read on an Envision (PerkinElmer, Waltham, MA) using 340 nm excitation and emission reads at 495 and 520 nM.

Assay [4] has as its target T2, FLT3-ITD (Homo sapiens, UniProt P36888).
T2 sequence (P36888 1-993): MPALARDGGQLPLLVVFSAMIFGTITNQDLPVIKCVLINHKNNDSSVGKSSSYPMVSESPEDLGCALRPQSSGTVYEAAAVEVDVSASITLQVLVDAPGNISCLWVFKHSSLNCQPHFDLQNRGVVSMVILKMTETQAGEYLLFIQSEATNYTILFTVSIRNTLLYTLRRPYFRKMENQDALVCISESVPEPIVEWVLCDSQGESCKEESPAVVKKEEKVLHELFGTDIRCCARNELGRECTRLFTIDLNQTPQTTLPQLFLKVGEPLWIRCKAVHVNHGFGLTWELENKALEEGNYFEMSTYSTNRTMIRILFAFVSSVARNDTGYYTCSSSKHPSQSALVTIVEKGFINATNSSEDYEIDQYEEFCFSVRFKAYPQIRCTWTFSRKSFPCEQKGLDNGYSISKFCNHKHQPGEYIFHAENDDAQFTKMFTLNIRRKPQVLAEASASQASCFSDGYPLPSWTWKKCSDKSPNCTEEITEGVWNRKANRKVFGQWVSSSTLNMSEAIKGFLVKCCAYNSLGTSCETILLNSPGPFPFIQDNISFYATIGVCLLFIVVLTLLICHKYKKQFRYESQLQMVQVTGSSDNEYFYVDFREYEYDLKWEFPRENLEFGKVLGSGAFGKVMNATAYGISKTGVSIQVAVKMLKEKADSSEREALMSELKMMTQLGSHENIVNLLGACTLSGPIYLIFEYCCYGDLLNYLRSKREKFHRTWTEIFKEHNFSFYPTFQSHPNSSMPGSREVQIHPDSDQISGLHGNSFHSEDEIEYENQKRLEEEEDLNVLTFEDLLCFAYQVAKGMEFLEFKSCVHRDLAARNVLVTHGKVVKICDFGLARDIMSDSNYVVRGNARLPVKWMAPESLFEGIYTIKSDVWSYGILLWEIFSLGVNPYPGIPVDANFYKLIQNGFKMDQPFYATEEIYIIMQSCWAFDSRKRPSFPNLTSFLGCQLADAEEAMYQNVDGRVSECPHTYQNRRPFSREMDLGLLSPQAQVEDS
The experiment in a line: FLT3-ITD LanthaScreen assay. It is filed as biochemical. Conditions: Table 4. On the procedure:
as §1, §2

Sequence of METTL3/METTL14 (Q86U44 whole entry, species assumed): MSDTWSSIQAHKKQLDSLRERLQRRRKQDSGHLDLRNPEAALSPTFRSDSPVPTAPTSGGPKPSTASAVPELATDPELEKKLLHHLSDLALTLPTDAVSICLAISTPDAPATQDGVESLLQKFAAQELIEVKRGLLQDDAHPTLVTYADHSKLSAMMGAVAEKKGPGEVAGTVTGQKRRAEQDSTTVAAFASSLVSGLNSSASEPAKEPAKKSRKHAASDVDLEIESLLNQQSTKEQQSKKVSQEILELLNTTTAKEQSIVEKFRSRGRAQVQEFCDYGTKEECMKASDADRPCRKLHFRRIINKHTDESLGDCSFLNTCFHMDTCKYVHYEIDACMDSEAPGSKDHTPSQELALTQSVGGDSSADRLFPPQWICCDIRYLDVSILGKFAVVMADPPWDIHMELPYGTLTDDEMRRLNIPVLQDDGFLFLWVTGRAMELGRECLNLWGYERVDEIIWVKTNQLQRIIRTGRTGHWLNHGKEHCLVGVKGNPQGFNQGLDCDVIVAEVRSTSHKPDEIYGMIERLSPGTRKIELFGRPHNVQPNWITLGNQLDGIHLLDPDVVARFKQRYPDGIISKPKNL
Sequence of METTL3/METTL14 (Q9HCE5 whole entry partner, species assumed): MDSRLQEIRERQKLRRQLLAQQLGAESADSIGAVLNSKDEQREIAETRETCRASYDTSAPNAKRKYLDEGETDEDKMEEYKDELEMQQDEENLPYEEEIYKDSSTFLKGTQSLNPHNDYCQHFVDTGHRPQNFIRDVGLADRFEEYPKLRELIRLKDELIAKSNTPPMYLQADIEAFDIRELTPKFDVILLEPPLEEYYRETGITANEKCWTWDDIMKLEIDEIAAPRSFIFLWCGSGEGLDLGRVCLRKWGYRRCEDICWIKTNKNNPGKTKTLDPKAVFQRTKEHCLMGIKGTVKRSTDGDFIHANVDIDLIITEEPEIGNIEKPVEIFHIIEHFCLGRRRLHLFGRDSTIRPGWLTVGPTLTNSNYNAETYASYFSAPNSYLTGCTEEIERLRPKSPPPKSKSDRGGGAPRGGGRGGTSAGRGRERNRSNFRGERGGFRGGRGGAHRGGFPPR
Sequence of PRMT5-MEP50 (O14744 whole entry): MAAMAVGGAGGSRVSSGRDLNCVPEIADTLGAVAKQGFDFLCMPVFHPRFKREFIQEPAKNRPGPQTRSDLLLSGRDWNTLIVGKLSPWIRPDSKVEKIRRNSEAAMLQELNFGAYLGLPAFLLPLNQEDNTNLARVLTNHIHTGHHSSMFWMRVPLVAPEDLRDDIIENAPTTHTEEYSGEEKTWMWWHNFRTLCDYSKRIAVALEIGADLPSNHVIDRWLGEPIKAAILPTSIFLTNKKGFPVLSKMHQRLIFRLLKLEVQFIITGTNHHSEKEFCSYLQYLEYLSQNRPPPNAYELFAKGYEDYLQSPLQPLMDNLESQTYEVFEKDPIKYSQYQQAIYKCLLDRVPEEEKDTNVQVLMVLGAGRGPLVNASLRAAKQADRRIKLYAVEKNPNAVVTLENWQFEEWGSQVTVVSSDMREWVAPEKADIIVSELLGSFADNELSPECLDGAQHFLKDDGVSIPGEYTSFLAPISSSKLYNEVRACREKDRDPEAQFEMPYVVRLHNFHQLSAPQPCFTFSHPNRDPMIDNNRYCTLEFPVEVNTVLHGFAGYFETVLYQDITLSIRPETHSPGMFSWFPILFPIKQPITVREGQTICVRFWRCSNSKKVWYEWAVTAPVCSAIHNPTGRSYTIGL
Sequence of PRMT5-MEP50 (Q9BQA1 whole entry partner): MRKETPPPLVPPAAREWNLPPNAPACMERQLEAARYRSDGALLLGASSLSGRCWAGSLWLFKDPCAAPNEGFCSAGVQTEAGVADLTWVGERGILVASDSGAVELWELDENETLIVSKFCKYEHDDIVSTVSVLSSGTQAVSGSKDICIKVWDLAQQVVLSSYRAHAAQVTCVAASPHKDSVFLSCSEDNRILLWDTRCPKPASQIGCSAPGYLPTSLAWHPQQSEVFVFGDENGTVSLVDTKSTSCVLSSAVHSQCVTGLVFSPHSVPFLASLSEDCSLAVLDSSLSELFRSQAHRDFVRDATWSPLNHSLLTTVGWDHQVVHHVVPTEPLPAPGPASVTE

`CN1CCC(NC(=O)[C@H]2O[C@@H](n3cc(C4CCCC4)c4c(N)ncnc43)[C@H](O)[C@@H]2O)CC1` [Compound I-56, (2S,3S,4R,5R)-5-(4-amino-5-cyclopentyl-7H-pyrrolo[2,3-d]pyrimidin-7-yl)-3,4-dihydroxy-N-(1-methylpiperidin-4-yl)tetrahydrofuran-2-carboxamide]: the IC50 was 0.1 to 1 µM in assay [1], 0.1 to 1 µM in assay [2], no less than 1 µM in assay [3] and no less than 1 µM in assay [4].
Regarding `COCCn1ccc(-c2cn([C@@H]3O[C@H](C(=O)NC4CCN(C)CC4)[C@@H](O)[C@H]3O)c3ncnc(N)c23)n1` [Compound I-57, (2S,3S,4R,5R)-5-(4-amino-5-(1-(2-methoxyethyl)-1H-pyrazol-3-yl)-7H-pyrrolo[2,3-d]pyrimidin-7-yl)-3,4-dihydroxy-N-(1-methylpiperidin-4-yl)tetrahydrofuran-2-carboxamide], the 50% inhibitory concentration (IC50) is 0.1 to 1 µM in assay [1], 0.1 to 1 µM in assay [2], no less than 1 µM in assay [3] and no less than 1 µM in assay [4].
Consider `CNc1ccc2ccc(NC(=O)[C@H]3O[C@@H](n4cc(-c5ccn(C)n5)c5c(N)ncnc54)[C@@H](F)[C@@H]3O)cc2n1` [Compound I-61], for which the IC50 in assay [1] is less than 0.01 µM; in assay [2], 0.01 to 0.1 µM; in assay [3], 0.1 to 1 µM; in assay [4] it was 0.1 to 1 µM.
As for `CNc1ccc2ccc(NC(=O)[C@H]3O[C@@H](n4ccc5c(N)ncnc54)[C@@H](F)[C@@H]3O)cc2n1` [Compound I-62], the IC50 in assay [1] is 0.1 to 1 µM; in assay [2], less than 0.01 µM; in assay [3], no less than 1 µM; in assay [4], no less than 1 µM.
For `CNC(=O)Nc1cc(NC(=O)[C@H]2O[C@@H](n3cc(-c4ccn(C)n4)c4c(N)ncnc43)[C@H](O)[C@@H]2O)ccn1` [Compound I-143], the IC50 is 0.1 to 1 µM in assay [1], 0.01 to 0.1 µM in assay [2], no less than 1 µM in assay [3] and no less than 1 µM in assay [4].
Turning to `CN1CCC(N(CCC#N)C(=O)[C@H]2O[C@@H](n3cc(-c4ccn(C)n4)c4c(N)ncnc43)[C@H](O)[C@@H]2O)CC1` [Compound I-144], the concentration for half-maximal inhibition (IC50) is 0.1 to 1 µM in assay [1], 0.01 to 0.1 µM in assay [2], no less than 1 µM in assay [3] and no less than 1 µM in assay [4].
In the case of `CN1CCC(N(CCCO)C(=O)[C@H]2O[C@@H](n3cc(-c4ccn(C)n4)c4c(N)ncnc43)[C@H](O)[C@@H]2O)CC1` [Compound I-145], the IC50 in assay [1] was 0.1 to 1 µM; in assay [2], less than 0.01 µM; in assay [3] it was no less than 1 µM; in assay [4] it was no less than 1 µM.
In the case of `CN1CCC(N(CCCN)C(=O)[C@H]2O[C@@H](n3cc(-c4ccn(C)n4)c4c(N)ncnc43)[C@H](O)[C@@H]2O)CC1` [Compound I-146], the IC50 in assay [1] is 0.01 to 0.1 µM; in assay [2] it was 0.01 to 0.1 µM; in assay [3] it was no less than 1 µM; in assay [4] it was no less than 1 µM.
Take `CC(O)CN(C(=O)[C@H]1O[C@@H](n2cc(-c3ccn(C)n3)c3c(N)ncnc32)[C@H](O)[C@@H]1O)C1CCN(C)CC1` (some centres unmarked) [Compound I-147]: the IC50 was no less than 1 µM in assay [1], less than 0.01 µM in assay [2], no less than 1 µM in assay [3] and no less than 1 µM in assay [4].
As for `CC(O)CCN(C(=O)[C@H]1O[C@@H](n2cc(-c3ccn(C)n3)c3c(N)ncnc32)[C@H](O)[C@@H]1O)C1CCN(C)CC1` (some centres unmarked) [Compound I-148], the half-inhibitory concentration (IC50) is no less than 1 µM in assay [1], 0.01 to 0.1 µM in assay [2], no less than 1 µM in assay [3] and no less than 1 µM in assay [4].
On to `CN1CCC(N(C(=O)[C@H]2O[C@@H](n3cc(-c4ccn(C)n4)c4c(N)ncnc43)[C@H](O)[C@@H]2O)C2CC2)CC1` [Compound I-149], for which the IC50 was 0.01 to 0.1 µM in assay [1], less than 0.01 µM in assay [2], no less than 1 µM in assay [3] and no less than 1 µM in assay [4].
For the compound `Cn1ccc(-c2cn([C@@H]3O[C@H](C(=O)N4CCC[C@@H](NS(C)(=O)=O)C4)[C@@H](O)[C@H]3O)c3ncnc(N)c23)n1` [Compound I-151], the IC50 in assay [1], in assay [2], in assay [3] and in assay [4] was no less than 1 µM each time.
`Cn1ccc(-c2cn([C@@H]3O[C@H](C(=O)NC[C@H]4CC[C@H](O)CC4)[C@@H](O)[C@H]3O)c3ncnc(N)c23)n1` [Compound I-159]: the half-maximal inhibitory concentration (IC50) in assay [1], in assay [2], in assay [3] and in assay [4] was no less than 1 µM each time.
`Cn1ccc(-c2cn([C@@H]3O[C@H](C(=O)N4CCC[C@@H](C(N)=O)C4)[C@@H](O)[C@H]3O)c3ncnc(N)c23)n1` [Compound I-174]: the IC50 in assay [1], in assay [2], in assay [3] and in assay [4] was no less than 1 µM throughout.
With `CN1CCC(N(CCOCCO)C(=O)[C@H]2O[C@@H](n3cc(-c4ccn(C)n4)c4c(N)ncnc43)[C@H](O)[C@@H]2O)CC1` [Compound I-177], the IC50 in assay [1] was no less than 1 µM; in assay [2] it was 0.01 to 0.1 µM; in assay [3] it was no less than 1 µM; in assay [4], no less than 1 µM.
In the case of `Cn1ccc(-c2cn([C@@H]3O[C@H](C(=O)NC4CCN(CCO)CC4)[C@@H](O)[C@H]3O)c3ncnc(N)c23)n1` [Compound I-178], the IC50 is 0.1 to 1 µM in assay [1], 0.01 to 0.1 µM in assay [2], no less than 1 µM in assay [3] and no less than 1 µM in assay [4].
Regarding `CN1CC[C@@H](NC(=O)[C@H]2O[C@@H](n3cc(-c4ccn(C)n4)c4c(N)ncnc43)[C@H](O)[C@@H]2O)C1` [Compound I-184], the IC50 is 0.1 to 1 µM in assay [1], 0.01 to 0.1 µM in assay [2], no less than 1 µM in assay [3] and no less than 1 µM in assay [4].

The values above are taken from US20240051985A1, “METTL3 MODULATORS” (ACCENT THERAPEUTICS, INC., priority 2020, published 2024).
